Laboratory results from PMC12655252, “Synthesis of 1H-Pyrrolo[3,2-g]isoquinoline Derivatives as Ligands Targeting Haspin Kinase” (Molecules, 2025).

Tests used:
Haspin = conditions: Figure 2; cited from earlier work
HsGSK3β = target: T1, HsGSK3β (Homo sapiens, UniProt P49841); assay: ADP-Glo in vitro kinase inhibition assay, GSK3β; format: biochemical; conditions: 10 μM ATP, read-out: GSK3 % residual activity; for remaining activity at 1 µM: 1 μM compound; for remaining activity at 10 µM: 10 μM compound
T1 construct: made in house; host or cells: Sf9 insect cells (baculovirus)
Protocol: (§1) We previouly reported that substitution at the 3-position with halogen atoms or pyridinyl or formyl groups was compatible with high potency toward Haspin kinase. To check if the current structural changes were in line with potent Haspin inhibition and high selectivity, enabling consideration of these compounds as possible targeting ligands for the PROTAC approach, compounds 2, 3, 8–11, and 15–17 were evaluated toward a panel of eight protein kinases, including Haspin, as well as other kinases known to be frequently cross-inhibited (CLK1, DYRK1A, CDK9/Cyclin T, GSK-3β, CK1ε, CDK5/p25, and Pim1) (Table 1). The percentage of residual kinase activity was evaluated at 10 μM and 1 μM compound concentrations. […].
(§2) Kinase inhibition was tested in 384-well plates using the ADP-GloTM assay kit (Promega, Madison, WI, USA) according to the procedure recommended by the manufacturer. Reactions were set up in a final volume of 6 μL in an appropriate kinase buffer (10 mM MgCl2, 1 mM EGTA, 1 mM DTT, 25 mM Tris-HCl pH 7.5, 50 μg/mL heparin) with either protein or peptide as the substrate in the presence of 10 μM ATP. To stop the kinase reaction, 6 μL of ADP-GloTM Kinase Reagent was added after 30 min at 30 °C. Then, after 50 min of incubation at room temperature (RT), 12 μL of Kinase Detection Reagent was added. The transmitted signal was measured after 1 h at RT using the Envision (Perkin Elmer, Waltham, MA, USA) microplate luminometer and expressed in relative light units (RLU). In order to determine the half-maximal inhibitory concentration (IC50), all assays were performed in duplicate in the absence or presence of increasing doses of the tested compounds. GraphPad Prism10 software (GraphPad Software, San Diego, CA, USA) was used to fit dose–response curves and to determine the IC50 values. Kinase activities are given as percentages of maximal activity, i.e., measured in the absence of inhibitor. Peptide substrates were obtained from Proteogenix (Schiltigheim, France).
(§3) The following protein kinases were analyzed in this study: CDK5/p25 (human, vector pGEX-2T, expressed in bacteria; kindly provided by Dr. J. H. Wang) was assayed with 0.8 μg/μL of histone H1 as substrate; HsCDK9/CyclinT (NP_001252/KAI4065659, cloned in pTEFb vector, expressed by baculovirus in Sf9 insect cells) were assayed with 0.27 μg/μL of the following peptide: […], as substrate; HsCK1ε (NP_001885, cloned in pFAST-BAC vector, expressed in Sf9 insect cells) was assayed with 0.022 μg/μL of the following peptide: […]pAYSITA (“Sp” stands for phosphorylated serine) as CK1-specific substrate; HsGSK3β (AAH12760, cloned in pFAST-BAC, expressed by baculovirus in Sf9 insect cells) were assayed with 0.010 μg/μL of GS-1 peptide, a GSK-3-selective substrate ([…]pEDEEE); HsHaspin-kd (NP_114171, kinase domain, amino acids 470–798 cloned in pGEX-6P-3, expressed in bacteria) was assayed with 0.007 μg/μL of histone H3 (1–21) peptide ([…]) as substrate; Pim-1 (KAI4018123, expressed in bacteria) was assayed with 0.8 μg/μL of histone H1 as substrate; HsCLK1 (NP_004062, cloned in pFAST-BAC, expressed in Sf9 insect cells) was assayed with 0.027 μg/μL of the peptide: […]; RnDYRK1A-kd (Rattus norvegicus, amino acids 1–499, pGEX-2TK, expressed in bacteria, gift from Dr. W. Becker, Aachen, Germany) was tested in the presence of 0.033 μg/μL of the peptide: […].

CDK5/p25 = target: T2, CDK5/p25 (Homo sapiens, UniProt Q00535); assay: ADP-Glo in vitro kinase inhibition assay, CDK5/p25; format: biochemical; conditions: 10 μM ATP, read-out: CDK5 % residual activity; for remaining activity at 1 µM: 1 μM compound; for remaining activity at 10 µM: 10 μM compound
T2 construct: made in house; host or cells: bacteria
Protocol: as §1, §2, §3

HsHaspin-kd = target: T3, HsHaspin-kd (Homo sapiens, UniProt Q8TF76); assay: ADP-Glo in vitro kinase inhibition assay, Haspin; format: biochemical; conditions: 10 μM ATP, duplicate; for remaining activity at 1 µM: 1 μM compound; for remaining activity at 1 µM / remaining activity at 10 µM: read-out: Haspin % residual activity; for remaining activity at 10 µM: 10 μM compound
T3 construct: kinase domain, amino acids 470–798 cloned in pGEX-6P-3; made in house; host or cells: bacteria
T3 sequence (Q8TF76 470-798): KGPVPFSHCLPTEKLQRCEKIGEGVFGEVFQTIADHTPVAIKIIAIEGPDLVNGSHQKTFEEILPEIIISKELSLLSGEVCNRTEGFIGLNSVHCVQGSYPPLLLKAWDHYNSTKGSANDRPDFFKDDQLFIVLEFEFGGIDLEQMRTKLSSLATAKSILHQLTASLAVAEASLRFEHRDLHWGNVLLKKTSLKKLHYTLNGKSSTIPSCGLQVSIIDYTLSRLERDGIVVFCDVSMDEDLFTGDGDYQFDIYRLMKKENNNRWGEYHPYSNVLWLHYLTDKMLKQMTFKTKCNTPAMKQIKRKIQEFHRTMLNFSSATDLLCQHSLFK
Protocol: as §1, §2, §3

HsCDK9/CyclinT = target: T4, HsCDK9/CyclinT (Homo sapiens, UniProt P50750); assay: ADP-Glo in vitro kinase inhibition assay, CDK9/CyclinT; format: biochemical; conditions: 10 μM ATP, read-out: CDK9 % residual activity; for remaining activity at 1 µM: 1 μM compound; for remaining activity at 10 µM: 10 μM compound
T4 construct: made in house; host or cells: Sf9 insect cells (baculovirus)
Protocol: as §1, §2, §3

Pim-1 = target: T5, Pim-1 (Homo sapiens, UniProt P11309); assay: ADP-Glo in vitro kinase inhibition assay, Pim-1; format: biochemical; conditions: 10 μM ATP, read-out: PIM1 % residual activity; for remaining activity at 1 µM: 1 μM compound; for remaining activity at 10 µM: 10 μM compound
T5 construct: made in house; host or cells: bacteria
Protocol: as §1, §2, §3

RnDYRK1A-kd = target: T6, RnDYRK1A-kd (Rattus norvegicus, UniProt Q63470); assay: ADP-Glo in vitro kinase inhibition assay, DYRK1A; format: biochemical; conditions: 10 μM ATP, read-out: DYRK1A % residual activity; for remaining activity at 1 µM: 1 μM compound; for remaining activity at 10 µM: 10 μM compound
T6 construct: Rattus norvegicus, amino acids 1–499, pGEX-2TK; made in house; host or cells: bacteria
Protocol: as §1, §2, §3

HsCK1ε = target: T7, HsCK1ε (Homo sapiens, UniProt P49674); assay: ADP-Glo in vitro kinase inhibition assay, CK1ε; format: biochemical; conditions: 10 μM ATP, read-out: CK1 % residual activity; for remaining activity at 1 µM: 1 μM compound; for remaining activity at 10 µM: 10 μM compound
T7 construct: made in house; host or cells: Sf9 insect cells
Protocol: as §1, §2, §3

HsCLK1 = target: T8, HsCLK1 (Homo sapiens, UniProt P49759); assay: ADP-Glo in vitro kinase inhibition assay, CLK1; format: biochemical; conditions: 10 μM ATP, read-out: CLK1 % residual activity; for remaining activity at 1 µM: 1 μM compound; for remaining activity at 10 µM: 10 μM compound
T8 construct: made in house; host or cells: Sf9 insect cells
Protocol: as §1, §2, §3

T7 sequence (P49674 whole entry): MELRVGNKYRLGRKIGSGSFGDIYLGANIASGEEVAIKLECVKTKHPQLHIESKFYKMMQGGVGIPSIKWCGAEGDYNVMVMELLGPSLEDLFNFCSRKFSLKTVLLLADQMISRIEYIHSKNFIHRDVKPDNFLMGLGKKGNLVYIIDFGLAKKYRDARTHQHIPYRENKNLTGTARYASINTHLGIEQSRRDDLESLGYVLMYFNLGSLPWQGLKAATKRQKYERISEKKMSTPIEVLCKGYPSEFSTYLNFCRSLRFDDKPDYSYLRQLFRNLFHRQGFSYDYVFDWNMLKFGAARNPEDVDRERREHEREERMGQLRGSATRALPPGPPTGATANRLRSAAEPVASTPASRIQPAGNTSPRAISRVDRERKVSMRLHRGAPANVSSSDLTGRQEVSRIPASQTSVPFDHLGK
T5 sequence (P11309 whole entry): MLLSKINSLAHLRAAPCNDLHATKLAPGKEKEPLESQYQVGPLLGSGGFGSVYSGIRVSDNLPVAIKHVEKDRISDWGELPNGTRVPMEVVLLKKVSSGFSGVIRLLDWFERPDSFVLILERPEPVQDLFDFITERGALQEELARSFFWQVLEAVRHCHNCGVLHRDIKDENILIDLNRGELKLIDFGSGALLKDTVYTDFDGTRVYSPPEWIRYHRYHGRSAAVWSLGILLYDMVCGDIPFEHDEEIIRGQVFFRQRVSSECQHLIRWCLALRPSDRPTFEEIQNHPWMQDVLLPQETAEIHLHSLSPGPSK
T4 sequence (P50750 whole entry): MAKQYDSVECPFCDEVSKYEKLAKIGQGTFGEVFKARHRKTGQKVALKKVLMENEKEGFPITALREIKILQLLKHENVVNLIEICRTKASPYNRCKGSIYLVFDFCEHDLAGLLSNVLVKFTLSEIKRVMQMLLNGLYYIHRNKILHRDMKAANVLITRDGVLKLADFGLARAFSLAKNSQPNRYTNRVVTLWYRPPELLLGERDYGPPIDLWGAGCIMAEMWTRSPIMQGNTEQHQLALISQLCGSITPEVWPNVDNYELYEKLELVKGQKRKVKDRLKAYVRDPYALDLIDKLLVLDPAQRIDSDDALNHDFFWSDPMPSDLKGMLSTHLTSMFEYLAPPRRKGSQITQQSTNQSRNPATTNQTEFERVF
T4 sequence (O60563 whole entry partner): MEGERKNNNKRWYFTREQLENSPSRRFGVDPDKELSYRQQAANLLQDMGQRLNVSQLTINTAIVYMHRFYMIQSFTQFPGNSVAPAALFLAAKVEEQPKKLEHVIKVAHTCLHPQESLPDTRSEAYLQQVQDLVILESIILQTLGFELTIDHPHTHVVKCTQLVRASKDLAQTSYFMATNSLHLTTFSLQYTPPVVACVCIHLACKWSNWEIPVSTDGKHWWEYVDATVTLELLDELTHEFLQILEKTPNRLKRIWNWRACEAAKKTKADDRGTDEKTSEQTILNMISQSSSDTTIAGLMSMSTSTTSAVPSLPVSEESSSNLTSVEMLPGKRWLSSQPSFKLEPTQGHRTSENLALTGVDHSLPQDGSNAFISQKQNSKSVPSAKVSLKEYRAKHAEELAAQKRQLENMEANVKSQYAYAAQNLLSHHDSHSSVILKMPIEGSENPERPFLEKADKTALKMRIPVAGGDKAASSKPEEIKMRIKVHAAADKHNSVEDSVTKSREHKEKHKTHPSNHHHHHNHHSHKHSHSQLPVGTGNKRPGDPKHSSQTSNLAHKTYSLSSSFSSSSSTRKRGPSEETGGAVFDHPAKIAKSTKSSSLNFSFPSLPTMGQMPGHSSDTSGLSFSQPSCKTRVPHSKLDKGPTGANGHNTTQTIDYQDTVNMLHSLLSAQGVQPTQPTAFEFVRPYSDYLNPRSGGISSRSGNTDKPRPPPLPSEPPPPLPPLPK
T8 sequence (P49759 whole entry): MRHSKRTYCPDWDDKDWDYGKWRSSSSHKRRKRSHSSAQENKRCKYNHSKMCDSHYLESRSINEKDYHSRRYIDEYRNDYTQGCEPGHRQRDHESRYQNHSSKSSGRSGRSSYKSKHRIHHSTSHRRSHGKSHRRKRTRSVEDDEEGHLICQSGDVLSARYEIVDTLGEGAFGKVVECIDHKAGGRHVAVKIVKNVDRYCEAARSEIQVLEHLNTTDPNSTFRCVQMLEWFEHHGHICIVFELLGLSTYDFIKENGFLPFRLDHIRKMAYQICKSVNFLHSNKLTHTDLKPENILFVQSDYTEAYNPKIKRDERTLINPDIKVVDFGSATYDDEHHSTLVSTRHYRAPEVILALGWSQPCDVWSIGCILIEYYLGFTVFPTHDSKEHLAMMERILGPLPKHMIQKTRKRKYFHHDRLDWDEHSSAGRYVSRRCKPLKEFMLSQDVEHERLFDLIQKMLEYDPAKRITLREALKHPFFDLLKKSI
T1 sequence (P49841 whole entry): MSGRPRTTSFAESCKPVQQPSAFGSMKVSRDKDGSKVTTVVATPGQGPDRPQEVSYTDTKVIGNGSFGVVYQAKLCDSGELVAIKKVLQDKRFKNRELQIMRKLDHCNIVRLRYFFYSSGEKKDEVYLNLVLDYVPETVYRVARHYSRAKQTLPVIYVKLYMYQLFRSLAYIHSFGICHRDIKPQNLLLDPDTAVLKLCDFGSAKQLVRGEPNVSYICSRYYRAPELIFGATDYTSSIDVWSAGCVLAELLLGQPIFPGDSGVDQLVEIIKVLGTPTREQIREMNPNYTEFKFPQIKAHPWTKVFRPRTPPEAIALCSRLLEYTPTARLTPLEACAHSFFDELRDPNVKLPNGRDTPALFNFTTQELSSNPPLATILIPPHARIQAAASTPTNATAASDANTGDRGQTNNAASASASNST
T2 sequence (Q00535 whole entry): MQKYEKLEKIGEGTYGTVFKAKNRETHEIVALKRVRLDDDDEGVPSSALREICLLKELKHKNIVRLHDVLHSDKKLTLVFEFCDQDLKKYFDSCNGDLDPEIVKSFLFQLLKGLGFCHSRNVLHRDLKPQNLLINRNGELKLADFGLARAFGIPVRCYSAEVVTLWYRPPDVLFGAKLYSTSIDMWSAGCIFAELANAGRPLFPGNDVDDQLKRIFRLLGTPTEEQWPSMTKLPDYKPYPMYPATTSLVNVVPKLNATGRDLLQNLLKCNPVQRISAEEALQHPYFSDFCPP
T2 sequence (Q15078 99-307 partner limits assumed): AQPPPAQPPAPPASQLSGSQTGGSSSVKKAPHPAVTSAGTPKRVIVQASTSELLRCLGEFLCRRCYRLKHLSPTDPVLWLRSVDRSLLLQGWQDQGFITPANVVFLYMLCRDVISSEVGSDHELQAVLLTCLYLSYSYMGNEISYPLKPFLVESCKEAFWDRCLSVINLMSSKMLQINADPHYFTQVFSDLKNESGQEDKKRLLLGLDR

Compound | IC50 (Haspin) [nM] | remaining activity at 1 µM (HsGSK3β) [%] | remaining activity at 10 µM (HsGSK3β) [%] | remaining activity at 1 µM (CDK5/p25) [%] | remaining activity at 10 µM (CDK5/p25) [%] | remaining activity at 1 µM (HsHaspin-kd) [%] | IC50 (HsHaspin-kd) [nM] | remaining activity at 10 µM (HsHaspin-kd) [%] | remaining activity at 1 µM (HsCDK9/CyclinT) [%] | remaining activity at 10 µM (HsCDK9/CyclinT) [%] | remaining activity at 1 µM (Pim-1) [%] | remaining activity at 10 µM (Pim-1) [%] | remaining activity at 1 µM (RnDYRK1A-kd) [%] | remaining activity at 10 µM (RnDYRK1A-kd) [%] | remaining activity at 1 µM (HsCK1ε) [%] | remaining activity at 10 µM (HsCK1ε) [%] | remaining activity at 1 µM (HsCLK1) [%] | remaining activity at 10 µM (HsCLK1) [%] | Ki (Haspin) [nM]
Clc1cc(-c2c[nH]c3cc4cnccc4cc23)ccn1 [Compound 2, 3-(2-Chloro-pyridin-4-yl)-1H-pyrrolo[3,2-g]isoquinoline] |  | 76 | 81 | 100 | 100 | 9 | 10.1 | 8 | 81 | 56 | 20 | 14 | 20 | 16 | 79 | 54 | 56 | 27 | 
CC(C)(C)OC(=O)/C=C/c1c[nH]c2cc3cnccc3cc12 [Compound 9, tert-Butyl (E)-3-(1H-Pyrrolo[3,2-g]isoquinolin-3-yl)prop-2-enoate] |  | 80 | 80 | 100 | 100 | 30 | 392 | 12 | 79 | 32 | 42 | 21 | 51 | 28 | 92 | 87 | 86 | 48 | 
COC(=O)CCc1c[nH]c2cc3cnccc3cc12 [Compound 10, Methyl 3-(1H-Pyrrolo[3,2-g]isoquinolin-3-yl)propanoate] |  | 100 | 99 | 100 | 100 | 45 | 82.1 | 10 | 90 | 72 | 72 | 52 | 72 | 32 | 100 | 97 | 91 | 60 | 
CC(C)(C)OC(=O)CCc1c[nH]c2cc3cnccc3cc12 [Compound 11, tert-Butyl 3-(1H-Pyrrolo[3,2-g]isoquinolin-3-yl)propanoate] |  | 83 | 94 | 100 | 100 | 70 |  | 52 | 100 | 86 | 70 | 60 | 58 | 31 | 98 | 81 | 98 | 81 | 
Cc1ccc(NC(=O)c2ccc3c(c2)c(CNCCN2CCNCC2)cn3C)cc1C [Compound A] | 0.01 |  |  |  |  |  |  |  |  |  |  |  |  |  |  |  |  |  | 
COc1ccc2c(c1)[nH]c1c(C)nccc12 [Harmine, harmine] | 590 |  |  |  |  |  |  |  |  |  |  |  |  |  |  |  |  |  | 
COc1ccc2nc3ccc(Cl)cc3c(SCCCN)c2c1 [LDN-209929] | 55 |  |  |  |  |  |  |  |  |  |  |  |  |  |  |  |  |  | 
C#Cc1cn([C@@H]2S[C@H](CN=[N+]=[N-])[C@@H](O)[C@H]2O)c2ncnc(N)c12 [LJ-4827] |  |  |  |  |  |  |  |  |  |  |  |  |  |  |  |  |  |  | 0.465
harmol | 770 |  |  |  |  |  |  |  |  |  |  |  |  |  |  |  |  |  | 
